Data set [1] in a line: Microsomal stability (liver microsomal assay, mixed cofactors); predicted hepatic clearance. It is filed as in vitro ADME. As to conditions: liver microsomes 1.0 mg protein/mL (+UDPGA +NADPH), 1 μM analyte, 37° C.; scaled with human liver weight and hepatic blood flow 1.3 L/hr/kg. In outline:
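Compound at 1 μM with human or rat pooled liver microsomes, alamethicin-treated, pH 7.4 phosphate, NADPH-regenerating plus UDPGA cofactors, 37° C, sampled 0–70 min. Parent/internal standard ratio by RapidFire QToF MS; half-life from initial log-linear decay, scaled to intrinsic and predicted hepatic clearance and hepatic extraction.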

In a further data set the target is GLP-1R (Homo sapiens (Human), UniProt P43220). Nature of the data set: GLP-1R activation: cAMP increase in CHO cells stably expressing GLP-1R. It is filed as cell-based. As to conditions: cAMP increase, 10 point dose response, 30 minutes incubation at 37° C., read-out: EC50. Put shortly: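 CHO cells stably expressing GLP-1R were incubated 1 h at 37 °C in medium with 1% BSA, then exposed to compound in a 10-point dose response for 30 min at 37 °C. cAMP rise was detected by HTRF (Gs Dynamic kit). EC50 came from a sigmoidal fit of response against log agonist concentration.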
GLP-1R, sequence (P43220 24-463): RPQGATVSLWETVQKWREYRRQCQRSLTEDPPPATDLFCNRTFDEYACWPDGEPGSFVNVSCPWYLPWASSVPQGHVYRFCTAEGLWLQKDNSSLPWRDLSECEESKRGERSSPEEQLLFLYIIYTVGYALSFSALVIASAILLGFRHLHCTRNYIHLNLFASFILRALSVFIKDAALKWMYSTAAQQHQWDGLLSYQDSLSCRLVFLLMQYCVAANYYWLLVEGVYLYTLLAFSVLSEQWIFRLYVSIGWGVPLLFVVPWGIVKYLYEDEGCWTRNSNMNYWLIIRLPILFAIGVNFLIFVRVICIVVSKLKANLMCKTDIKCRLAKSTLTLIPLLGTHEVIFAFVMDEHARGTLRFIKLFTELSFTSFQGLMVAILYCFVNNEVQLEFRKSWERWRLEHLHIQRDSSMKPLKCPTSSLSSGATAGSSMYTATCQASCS

Regarding `CC1(c2ccc(C(F)(F)F)cc2)Oc2cccc(-c3cc(F)c(Cc4nc5ccc(C(=O)O)cc5n4C[C@@H]4CCO4)cc3F)c2O1` (stereo partly drawn) [Example 63, 2-(2,5-difluoro-4-(2-methyl-2-(4-(trifluoromethyl)phenyl)benzo[d][1, 3]dioxol-4-yl)benzyl)-1-(((S)-oxetan-2-yl)methyl)-1H-benzo[d]imidazole-6-carboxylic acid], the “Predicted Hepatic Clearance (Pred. Cl.)” value in data set [1] was 3.5 mL/min/kg. Moreover, the EC50 at GLP-1R was found to be 0.62 nM.

On to `COCCn1c(Cc2c(F)cc(-c3cccc4c3OC(C)(c3ccc(Cl)cn3)O4)cc2F)nc2ccc(C(=O)O)cc21` (centres unmarked) [Example 64, 2-(4-(2-(5-chloropyridin-2-yl)-2-methylbenzo[d][1, 3]dioxol-4-yl)-2,6-difluorobenzyl)-1-(2-methoxyethyl)-1H-benzo[d]imidazole-6-carboxylic acid], for which the “Predicted Hepatic Clearance (Pred. Cl.)” value in data set [1] is 3.67 mL/min/kg. Further, the half-maximal effective concentration (EC50) at GLP-1R amounted to 111 nM.

As for `COCCn1c(Cc2c(F)cc(-c3cccc4c3OC(C)(c3ccc(Cl)cn3)O4)cc2F)nc2ccc(C(=O)O)cc21` (centres unmarked) [Example 65, 2-(4-(2-(5-chloropyridin-2-yl)-2-methylbenzo[d][1, 3]dioxol-4-yl)-2,6-difluorobenzyl)-1-(2-methoxyethyl)-1H-benzo[d]imidazole-6-carboxylic acid], the “Predicted Hepatic Clearance (Pred. Cl.)” value in data set [1] is 3.3 mL/min/kg. At GLP-1R, the EC50 was 10 nM.

Take `COCCn1c(Cc2c(F)cc(-c3cccc4c3OC(C)(c3ccc(C#N)cn3)O4)cc2F)nc2ccc(C(=O)O)cc21` (centres unmarked) [Example 66, 2-(4-(2-(5-cyanopyridin-2-yl)-2-methylbenzo[d][1, 3]dioxol-4-yl)-2,6-difluorobenzyl)-1-(2-methoxyethyl)-1H-benzo[d]imidazole-6-carboxylic acid]: the “Predicted Hepatic Clearance (Pred. Cl.)” value in data set [1] was 7.17 mL/min/kg. The EC50 on GLP-1R amounted to 21 nM.

With `COCCn1c(Cc2c(F)cc(-c3cccc4c3OC(C)(c3ccc(C(N)=O)cn3)O4)cc2F)nc2ccc(C(=O)O)cc21` (centres unmarked) [Example 67, 2-(4-(2-(5-carbamoylpyridin-2-yl)-2-methylbenzo[d][1, 3]dioxol-4-yl)-2,6-difluorobenzyl)-1-(2-methoxyethyl)-1H-benzo[d]imidazole-6-carboxylic acid], in data set [1], the “Predicted Hepatic Clearance (Pred. Cl.)” value is 7.17 mL/min/kg. Further, the EC50 at GLP-1R amounted to 20 nM.

Take `CCn1cnnc1Cn1c(Cc2c(F)cc(-c3cccc4c3OC(C)(c3ccc(Cl)cc3F)O4)cc2F)nc2ccc(C(=O)O)cc21` (centres unmarked) [Example 68, 2-(4-(2-(4-chloro-2-fluorophenyl)-2-methylbenzo[d][1, 3]dioxol-4-yl)-2,6-difluorobenzyl)-1-((4-ethyl-4H-1,2,4-triazol-3-yl)methyl)-1H-benzo[d]imidazole-6-carboxylic acid]: the “Predicted Hepatic Clearance (Pred. Cl.)” value in data set [1] is 2.83 mL/min/kg. The EC50 on GLP-1R is 12 nM.

Regarding `CC1(c2ccc(Cl)cc2F)Oc2cccc(-c3cc(F)c(Cc4nc5ccc(C(=O)O)cc5n4Cc4ncco4)c(F)c3)c2O1` (centres unmarked) [Example 69, 2-(4-(2-(4-chloro-2-fluorophenyl)-2-methylbenzo[d][1, 3]dioxol-4-yl)-2,6-difluorobenzyl)-1-(oxazol-2-ylmethyl)-1H-benzo[d]imidazole-6-carboxylic acid], the “Predicted Hepatic Clearance (Pred. Cl.)” value in data set [1] is 2.5 mL/min/kg. Also, the EC50 on GLP-1R was determined as 2.5 nM.

As to `CC1(c2ccc(Cl)cn2)Oc2cccc(-c3cc(F)c(Cc4nc5ccc(C(=O)O)cc5n4C[C@@H]4CCO4)c(F)c3F)c2O1` (stereo partly drawn) [Example 70, 2-(4-(2-(5-chloropyridin-2-yl)-2-methylbenzo[d][1, 3]dioxol-4-yl)-2,3,6-trifluorobenzyl)-1-(((S)-oxetan-2-yl)methyl)-1H-benzo[d]imidazole-6-carboxylic acid], the “Predicted Hepatic Clearance (Pred. Cl.)” value in data set [1] was 3.5 mL/min/kg. Further, the EC50 at GLP-1R worked out at 0.78 nM.

As for `O=C(O)c1ccc2nc(Cc3c(F)cc(-c4cccc5c4CN(c4ccc(Cl)cc4F)C5)cc3F)n(C[C@@H]3CCO3)c2c1` [Example 71, (S)-2-(4-(2-(4-chloro-2-fluorophenyl)isoindolin-4-yl)-2,6-difluorobenzyl)-1-(oxetan-2-ylmethyl)-1H-benzo[d]imidazole-6-carboxylic acid], the “Predicted Hepatic Clearance (Pred. Cl.)” value in data set [1] is 3.83 mL/min/kg. Further, at GLP-1R, the EC50 was determined as 10000 nM.

In the case of `O=C(O)c1ccc2nc(Cc3c(F)cc(-c4cccc5c4C(=O)N(c4ccc(Cl)cc4F)C5)cc3F)n(C[C@@H]3CCO3)c2c1` [Example 72, (S)-2-(4-(2-(4-chloro-2-fluorophenyl)-3-oxoisoindolin-4-yl)-2,6-difluorobenzyl)-1-(oxetan-2-ylmethyl)-1H-benzo[d]imidazole-6-carboxylic acid], the “Predicted Hepatic Clearance (Pred. Cl.)” value in data set [1] was 3.67 mL/min/kg. Moreover, the EC50 at GLP-1R turned out to be 10000 nM.

`O=C(O)c1ccc2nc(Cc3c(F)cc(-c4cccc5c4CN(c4ccc(Cl)cc4F)C5=O)cc3F)n(C[C@@H]3CCO3)c2c1` [Example 73, (S)-2-(4-(2-(4-chloro-2-fluorophenyl)-1-oxoisoindolin-4-yl)-2,6-difluorobenzyl)-1-(oxetan-2-ylmethyl)-1H-benzo[d]imidazole-6-carboxylic acid]: in data set [1], the “Predicted Hepatic Clearance (Pred. Cl.)” value is 2.5 mL/min/kg. The EC50 at GLP-1R is 10000 nM.

Turning to `CC1(c2ccc(Cl)cn2)Oc2cccc(-c3cc(F)c(Cc4nc5ccc(C(=O)O)cc5n4C[C@@H]4CCO4)c(C#N)c3)c2O1` (stereo partly drawn) [Example 74, 2-(4-(2-(5-chloropyridin-2-yl)-2-methylbenzo[d][1, 3]dioxol-4-yl)-2-cyano-6-fluorobenzyl)-1-(((S)-oxetan-2-yl)methyl)-1H-benzo[d]imidazole-6-carboxylic acid], the “Predicted Hepatic Clearance (Pred. Cl.)” value in data set [1] is 7.67 mL/min/kg. Moreover, on GLP-1R, the EC50 amounted to 1.7 nM.

As to `CC1(c2ccc(Cl)cc2F)Oc2cccc(-c3cc(F)c(Cc4nc5ccc(C(=O)O)nc5n4CC4(CC#N)CC4)cc3F)c2O1` (centres unmarked) [Example 75, 2-(4-(2-(4-chloro-2-fluorophenyl)-2-methylbenzo[d][1, 3]dioxol-4-yl)-2,5-difluorobenzyl)-3-((1-(cyanomethyl)cyclopropyl)methyl)-3H-imidazo[4,5-b]pyridine-5-carboxylic acid], in data set [1], the “Predicted Hepatic Clearance (Pred. Cl.)” value was 4.83 mL/min/kg. Further, the concentration giving a half-maximal response (EC50) at GLP-1R came to 0.7 nM.

As for `CC1(c2ccc(Cl)cn2)Oc2ccc(F)c(-c3ccc(Cc4nc5ccc(C(=O)O)cc5n4C[C@@H]4CCO4)c(F)c3)c2O1` (stereo partly drawn) [Example 76, 2-(4-(2-(5-chloropyridin-2-yl)-5-fluoro-2-methylbenzo[d][1, 3]dioxol-4-yl)-2-fluorobenzyl)-1-(((S)-oxetan-2-yl)methyl)-1H-benzo[d]imidazole-6-carboxylic acid], the “Predicted Hepatic Clearance (Pred. Cl.)” value in data set [1] is 8 mL/min/kg. Further, at GLP-1R, the EC50 came to 4.3 nM.

In the case of `CC1(c2ccc(Cl)cc2F)Oc2cccc(-c3ccc(Cc4nc5ccc(C(=O)O)cc5n4C[C@@H]4CCO4)cn3)c2O1` (stereo partly drawn) [Example 77, 2-((6-(2-(4-chloro-2-fluorophenyl)-2-methylbenzo[d][1, 3]dioxol-4-yl)pyridin-3-yl)methyl)-1-(((S)-oxetan-2-yl)methyl)-1H-benzo[d]imidazole-6-carboxylic acid], in data set [1], the “Predicted Hepatic Clearance (Pred. Cl.)” value was 4.33 mL/min/kg. For the same compound, the EC50 on GLP-1R came out at 72 nM.

As for `COCCn1c(Cc2ccc(-c3cccc4c3OC(c3ccc(Cl)cn3)C4)cc2F)nc2ccc(C(=O)O)cc21` (centres unmarked) [Example 78, 2-(4-(2-(5-chloropyridin-2-yl)-2,3-dihydrobenzofuran-7-yl)-2-fluorobenzyl)-1-(2-methoxyethyl)-1H-benzo[d]imidazole-6-carboxylic acid], the “Predicted Hepatic Clearance (Pred. Cl.)” value in data set [1] was 7.17 mL/min/kg. For the same compound, the EC50 at GLP-1R was 1780 nM.

These data come from patent US20250099431A1, “GLP-1R MODULATING COMPOUNDS” (priority 2020, published 2025).
